Patent US20250114350A1, “INHIBITORS OF […] AS ANTIFUNGAL AGENTS” (Regents of the University of Minnesota, priority 2023, published 2025)
In brackets after ≈: the same amount, converted by molar mass. Like-named read-outs stand apart in the source and are kept apart here.

Columns and labels:
[1] = molecular target: CnFTase (C. neoformans farnesyl transferase, α/β heterodimer) (Cryptococcus neoformans, UniProt J9VSJ6+T2BPA1); assay: CnFTase activity assay: farnesylation of a dansylated (fluorescent) peptide, inhibitor concentration giving half-maximal enzyme rates at 1 μM FPP (1μMIC50); conditions: read-out: CnFTase IC50 (1μMIC50), condition A: 20 nM CnFTase, dansyl-GCVVM 0.62 μM, Tris-HCl pH 7.5, ZnCl2 12.5 μM, 2.5% DMSO, room temperature, triplicate
Procedure: (§1) CnFTase activity assay. […] Final CnFTase concentrations (from 5× or 10× stocks in 20 mM Tris-HCl pH7.5, 20 mM NaCl, 5 μM ZnCl2, 1 mM TCEP, 1 mg/mL BSA): A, 20 nM; B: 4.4, 6.7, 10 nM triplets. […] For experiments that included phosphate, pH 7.5 stock was added to the desired final concentration. […] Data for determining ^1μMIC50 values (condition A) was collected in triplicate. Initial rates, vo, were extracted by fitting a straight line to the initial to tmax seconds of the reaction progress curves, where tmax values were selected by inspection and entered into curator tables for automated analysis. 1μMIC50 were determined by fitting a single-site Langmuir ligand-binding isotherm to the dependence of vo on inhibitor concentration (2, see below). All other experiments (condition B) all other experiments (condition B) used three different CnFTase concentrations, collecting progress curves as a function of FPP, inhibitor, and phosphate concentrations. The resulting triplet of progress curves was used to extract vo values automatically by minimizing
If x is an inhibitor concentration, then IC50=Ka^−1. […] In general, baseline signals, σ, (α or β) can be constant, or linear functions of ligand concentration x

[2] = system: C. neoformans; assay: Minimum inhibitory concentration (MIC): disc diffusion and broth microdilution; conditions: for MIC: Cryptococcus neoformans
Procedure: Antifungal activity was determined by measuring minimum inhibitory concentrations (MIC) of C. neoformans by two methods: a solid medium disc diffusion assay and broth microdilution assay.
Disc diffusion assay. Overnight cultures of C. neoformans (about 18 hours) were normalized to OD600 0.6, diluted 1/10, and 200 μL of each sample were spread onto either a YPD or YPGal (yeast extract-peptone medium with 3% galactose) plate using sterile glass beads. After drying, 10 μL of compound or solvent control (DMSO) was added to sterile 6 mm filter discs on each plate. Plates were incubated for 48 hours at 37° C.
Minimum inhibitory concentration (MIC) assays. C. neoformans: Overnight cultures (˜18 h) of C. neoformans strains incubated in YPD medium were diluted to 500 cells/ml in RPMI medium buffered with MOPS. Cells were aliquoted (200 μL/well) in black-wall, clear-bottom 96-wells plates (Greiner). Compound stock solutions in DMSO ranged from 9 μM to 20 mM, and added to 200 μL cell suspension aliquoted in 96-well plates. Final aqueous concentrations ranged from 200 μM to 0.09 μM, limiting DMSO to 1%. After 48-hr incubation at 37° C. or 30° C. for 48 h, 10% AlamarBlue (BioRad) was added. The end-point fluorescence intensity of reduced AlamarBlue was measured using a fluorescence plate reader (FLUORStar Optima plate reader) at the time point the indicator turned from blue to pink in healthy control cells.^51 Assays were performed in duplicate.

[3] = system: C. neoformans FTase (CnFTase); assay: CnFTase activity assay, farnesylation of a fluorescent (dansylated) peptide, 1μMIC50; format: biochemical, Cryptococcus neoformans; conditions: for change of affinity relative to the comparator analogue (cf.): pairwise comparison of analogues differing in one R group
Procedure: The library of 23 compounds contained leads with 60- to 150-fold enhanced ^1μMIC50 values.
CnFTase activity assay. The farnesyl transferase activity was measured by measuring the time dependence of the fluorescence emission intensity increase due to farnesylation of a dansylated peptide (Cassidy, P. B, et al., Methods Enzymol, 1995, 250, 30-43). Measurements were taken at room temperature in a 96-well black polystyrene, half area, flat bottom, non-binding surface plate using a SpectraMax M5e plate reader (excitation wavelength, 340 nm; emission wavelength 525 nm; emission high-pass filter, 455 nm). […] Final CnFTase concentrations (from 5× or 10× stocks in 20 mM Tris-HCl pH7.5, 20 mM NaCl, 5 μM ZnCl2, 1 mM TCEP, 1 mg/mL BSA): A, 20 nM; B: 4.4, 6.7, 10 nM triplets. […] For experiments that included phosphate, pH 7.5 stock was added to the desired final concentration. Data was analyzed using Python scripts for the Biomolecular Computing (BMC) package, included in the Dryad electronic repository. Data for determining ^1μMIC50 values (condition A) was collected in triplicate. Initial rates, vo, were extracted by fitting a straight line to the initial to tmax seconds of the reaction progress curves, where tmax values were selected by inspection and entered into curator tables for automated analysis. 1μMIC50 were determined by fitting a single-site Langmuir ligand-binding isotherm to the dependence of vo on inhibitor concentration (2, see below). All other experiments (condition B) […] used three different CnFTase concentrations, collecting progress curves as a function of FPP, inhibitor, and phosphate concentrations. The resulting triplet of progress curves was used to extract vo values automatically by minimizing
Single-site binding isotherms. Signals, S, resulting from a binding reaction were fit to
where α and β are the baselines associated with the apo-protein and its ligand complex, respectively, and y fractional occupancy of the binding site
If x is an inhibitor concentration, then IC50=Ka^−1. For Michaelis-Menten analysis 2 is reduced to a standard form (Bahar, I.; Jernigan, R. L.; Dill, K. A. Protein Actions, principles & modeling. Garland Science: 2017) with S=vo (initial rates), α=0, β=Vmax (maximal velocity), and KM=Ka^−1 (substrate dissociation constant). In general, baseline signals, σ, (α or β) can be constant, or linear functions of ligand concentration x

[4] = molecular target: CnFTase (Cryptococcus neoformans, UniProt J9VSJ6+T2BPA1); assay: CnFTase steady-state kinetics fit to competitive/uncompetitive/mixed inhibition models
Procedure: as §1
where χk^2 is the squared difference of the calculated and observed emissions in the k^th iteration of the minimizer, fi the initial fraction (constrained in the interval [0.5,1]) of the T time points of the progress curve, Di the dilution factor of the i^th progress curve (0.44:0.66:1 for condition B), S0ik the fluorescence emission intensity of the i^th progress curve at t=0 at the k^th (this value is refined individually using a one-dimensional golden section search^52 with fi and v0 values of the k−1 iteration), and ^obsSji, the observed intensity of the i^th progress curve at the j^th time point. The target function 1 is minimized using conjugate gradients with vo and fi as the degrees of freedom. The resulting rates were then fit to binding polynomials describing the inhibition mechanism (5-13, see below).
Binding polynomials for inhibition models. The initial steady-state rates of a reaction involving a single-substrate x, and inhibitor y are given by
Three binding polynomials were used:
where Ka, KC, and KU are the affinities of the enzyme for substrate, competitive inhibitor, and uncompetitive inhibitor, respectively.
Solvers for non-ideal conditions. In non-ideal conditions 9 is false, and the total protein concentration needs to be included as a degree of freedom, requiring the roots of the following multivariate polynomial to be found (see below for derivation):

[5] = system: C. neoformans; conditions: C. neoformans; Bongomin et al. 2018; cited from earlier work

Sequence of CnFTase (C. neoformans farnesyl transferase, α/β heterodimer) (J9VSJ6 entry or part of it): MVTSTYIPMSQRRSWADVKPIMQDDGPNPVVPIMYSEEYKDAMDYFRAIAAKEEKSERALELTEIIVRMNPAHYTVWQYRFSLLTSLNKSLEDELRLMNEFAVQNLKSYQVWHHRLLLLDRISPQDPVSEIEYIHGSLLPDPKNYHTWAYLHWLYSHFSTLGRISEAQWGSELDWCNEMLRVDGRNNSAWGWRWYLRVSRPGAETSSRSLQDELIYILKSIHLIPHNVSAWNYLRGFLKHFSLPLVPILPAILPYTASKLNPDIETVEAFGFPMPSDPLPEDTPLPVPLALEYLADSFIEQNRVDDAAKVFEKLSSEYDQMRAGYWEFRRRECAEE
Sequence of CnFTase (C. neoformans farnesyl transferase, α/β heterodimer) (T2BPA1 entry or part of it): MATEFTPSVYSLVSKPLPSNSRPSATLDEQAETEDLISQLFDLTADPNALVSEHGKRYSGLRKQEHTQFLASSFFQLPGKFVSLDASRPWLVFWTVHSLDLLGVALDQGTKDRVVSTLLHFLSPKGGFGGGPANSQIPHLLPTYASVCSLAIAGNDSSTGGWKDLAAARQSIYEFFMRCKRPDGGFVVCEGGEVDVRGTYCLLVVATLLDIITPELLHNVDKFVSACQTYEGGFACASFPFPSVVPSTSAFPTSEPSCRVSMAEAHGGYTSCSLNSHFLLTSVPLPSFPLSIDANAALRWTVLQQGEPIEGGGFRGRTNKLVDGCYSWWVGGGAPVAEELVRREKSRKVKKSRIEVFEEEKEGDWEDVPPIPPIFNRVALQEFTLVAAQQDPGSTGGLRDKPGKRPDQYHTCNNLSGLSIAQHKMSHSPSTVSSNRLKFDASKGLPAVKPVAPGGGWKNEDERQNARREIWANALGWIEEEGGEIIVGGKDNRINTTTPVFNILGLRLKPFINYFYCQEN
Sequence of CnFTase (J9VSJ6 entry or part of it): as the sequence (J9VSJ6 entry or part of it) above
Sequence of CnFTase (T2BPA1 entry or part of it): as the sequence (T2BPA1 entry or part of it) above

| IC50 [1] [nM] | change of affinity relative to the comparator analogue (cf.) [3] | SMILES | also measured |
| --- | --- | --- | --- |
| 100 ± 10 | – | CCCC[C@H]1CN(c2cccc(Cl)c2)C(=O)CN1Cc1cncn1Cc1ccc(C#N)cc1 [Compound 2a, (S)-4-((5-((2-Butyl-4-(3-chlorophenyl)-5-oxopiperazin-1-yl)methyl)-1H-imidazol-1-yl)methyl)benzonitrile] | – |
| 1600 ± 800 | – | CCCC[C@H]1CN(c2cccc(Cl)c2)C(=O)CN1Cc1cncn1Cc1ccc(Cl)cc1 [Compound 2c, (S)-5-Butyl-4-((1-(4-chlorobenzyl)-1H-imidazol-5-yl)methyl)-1-(3-chlorophenyl)piperazin-2-one] | – |
| 340 ± 220 | – | CCCC[C@H]1CN(c2cccc(OC(F)(F)F)c2)C(=O)CN1Cc1cncn1Cc1ccc(C#N)cc1 [Compound 2d, (S)-4-((5-((2-butyl-5-oxo-4-(3-(trifluoromethoxy)-phenyl)piperazin-1-yl)methyl)-1H-imidazol-1-yl)methyl)benzonitrile] | – |
| 260 ± 130 | – | CCCC[C@H]1CN(c2cccc(OC(F)(F)F)c2)C(=O)CN1Cc1cncn1Cc1ccc(Cl)cc1 [Compound 2e] | MIC [2]: 3 to 6 µM (≈ 1.56 to 3.13 µg/mL) |
| 710 ± 240 | – | CCCC[C@H]1CN(c2cccc(OC(F)(F)F)c2)C(=O)CN1Cc1cncn1Cc1ccc(F)cc1 [Compound 2g, (S)-5-butyl-4-((1-(4-fluorobenzyl)-1H-imidazol-5-yl)methyl)-1-(3-(trifluoromethoxy)phenyl)piperazin-2-one] | – |
| 280 ± 150 | – | CCCC[C@H]1CN(c2cccc(OC(F)(F)F)c2)C(=O)CN1Cc1cncn1Cc1ccc(C(F)(F)F)cc1 [Compound 2h, (S)-5-Butyl-1-(3-(trifluoromethoxy)phenyl)-4-((1-(4-(trifluoromethyl)benzyl)-1H-imidazol-5-yl)methyl)piperazin-2-one] | MIC [2]: 3 to 6 µM (≈ 1.66 to 3.33 µg/mL) |
| 1900 ± 1700 | – | CCCC[C@H]1CN(c2cccc(OC(F)(F)F)c2)C(=O)CN1Cc1cncn1Cc1ccccc1 [Compound 2i, (S)-4-((1-Benzyl-1H-imidazol-5-yl)methyl)-5-butyl-1-(3-(trifluoromethoxy)phenyl)piperazin-2-one] | – |
| 1100 ± 510 | reduced affinity | CCC[C@H]1CN(c2cccc(OC(F)(F)F)c2)C(=O)CN1Cc1cncn1Cc1ccc(Br)cc1 [Compound 2k, (S)-4-((1-(4-Bromobenzyl)-1H-imidazol-5-yl)methyl)-5-propyl-1-(3-(trifluoromethoxy)phenyl) piperazin-2-one] | MIC [2]: 3 to 6 µM (≈ 1.65 to 3.31 µg/mL) |
| 160 ± 20 | – | CCCCC[C@H]1CN(c2cccc(OC(F)(F)F)c2)C(=O)CN1Cc1cncn1Cc1ccc(Br)cc1 [Compound 2l, (S)-4-((1-(4-Bromobenzyl)-1H-imidazol-5-yl)methyl)-5-pentyl-1-(3-(trifluoromethoxy)phenyl)piperazin-2-one] | – |
| 920 ± 510 | – | CCCC[C@H]1CN(c2ccccc2)C(=O)CN1Cc1cncn1Cc1ccc(Br)cc1 [Compound 2m, (S)-4-((1-(4-Bromobenzyl)-1H-imidazol-5-yl)methyl)-5-butyl-1-phenylpiperazin-2-one] | – |
| 740 ± 310 | – | CCCC[C@H]1CN(c2cccc(OC(F)(F)F)c2)C(=O)CN1Cc1cncn1Cc1cccc(C#N)c1 [Compound 2o, (S)-3-((5-((2-Butyl-5-oxo-4-(3-(trifluoromethoxy)-phenyl)piperazin-1-yl)methyl)-1H-imidazol-1-yl)methyl)benzonitrile] | – |
| 180 ± 100 | – | CCCC[C@H]1CN(c2cccc(OC(F)(F)F)c2)C(=O)CN1Cc1cncn1Cc1ccc(F)c(C#N)c1 [Compound 2p, (S)-5-((5-((2-Butyl-5-oxo-4-(3-(trifluoromethoxy)phenyl)piperazin-1-yl)methyl)-1H-imidazol-1-yl)methyl)-2-fluorobenzonitrile] | – |
| 550 ± 30 | – | N#Cc1cc(Cn2cncc2CN2CCN(c3cccc(OC(F)(F)F)c3)C(=O)C2)ccc1F [Compound 2r, 2-Fluoro-5-((5-((3-oxo-4-(3-(trifluoromethoxy)phenyl)piperazin-1-yl)methyl)-1H-imidazol-1-yl)methyl)benzonitrile] | – |
| 120 ± 40 | 20 fold | N#Cc1ccc(Cn2cncc2CN2CCN(c3cccc(OC(F)(F)F)c3)C(=O)C2)cc1F [Compound 2s, 2-Fluoro-4-((5-((3-Oxo-4-(3-(trifluoromethoxy)phenyl)piperazin-1-yl)methyl)-1H-imidazol-1-yl)methyl)benzonitrile] | – |
| 210 ± 100 | – | CCCC[C@H]1CN(c2cccc(OC(F)(F)F)c2)C(=O)CN1Cc1cncn1Cc1ccc(Oc2ccccc2)c(C#N)c1 [Compound 2t, (S)-5-((5-((2-Butyl-5-oxo-4-(3-(trifluoromethoxy)phenyl)-piperazin-1-yl)methyl)-1H-imidazol-1-yl)methyl)-2-phenoxybenzonitrile] | – |
| 150 ± 60 | did not alter affinities | CCCC[C@H]1CN(c2cccc(OC(F)(F)F)c2)C(=O)CN1Cc1cncn1Cc1ccc(C#N)c(Oc2ccccc2)c1 [Compound 2u, (S)-4-((5-((2-butyl-5-oxo-4-(3-(trifluoromethoxy)phenyl)-piperazin-1-yl)methyl)-1H-imidazol-1-yl)methyl)-2-phenoxybenzonitrile] | – |
| 320 ± 100 | – | N#Cc1cc(Cn2cncc2CN2CCN(c3cccc(OC(F)(F)F)c3)C(=O)C2)ccc1Oc1ccccc1 [Compound 2v] | – |
| 2600 ± 1400 | did not alter affinities | N#Cc1ccc(Cn2cncc2CN2CCN(c3cccc(OC(F)(F)F)c3)C(=O)C2)cc1Oc1ccccc1 [Compound 2w, 4-((5-((3-Oxo-4-(3-(trifluoromethoxy)phenyl)piperazin-1-yl)methyl)-1H-imidazol-1-yl)methyl)-2-phenoxybenzonitrile] | – |
| – | showed little improvement | CCCCC[C@H]1CN(c2cccc(OC(F)(F)F)c2)C(=O)CN1Cc1cncn1Cc1ccc(Br)cc1 [Compound 21, (S)-4-((1-(4-Bromobenzyl)-1H-imidazol-5-yl)methyl)-5-pentyl-1-(3-(trifluoromethoxy)phenyl)piperazin-2-one] | MIC [2]: 3 to 6 µM (≈ 1.74 to 3.48 µg/mL) |
| – | – | OC(Cn1cncn1)(Cn1cncn1)c1ccc(F)cc1F [fluconazole] | MIC [5]: ≥ 8 µg/mL |

| SMILES | IC50 [1] [nM] | change of affinity relative to the comparator analogue (cf.) [3] | also measured |
| --- | --- | --- | --- |
| CCCC[C@H]1CN(c2cccc(Cl)c2)C(=O)CN1Cc1cncn1Cc1ccc(Br)cc1 [Compound 2b, (S)-4-((1-(4-Bromobenzyl)-1H-imidazol-5-yl)methyl)-5-butyl-1-(3-chlorophenyl)piperazin-2-one] | 1100 ± 780 | – | – |
| N#Cc1ccc(Cn2cncc2CN2CCN(c3cccc(OC(F)(F)F)c3)C(=O)C2)cc1 [Compound 2j, (S)-4-((5-((3-Oxo-4-(3-(trifluoromethoxy)phenyl)piperazin-1-yl)methyl)-1H-imidazol-1-yl)methyl)benzonitrile] | 2700 ± 1100 | had little effect or were slightly deleterious | – |
| CCCC[C@H]1CN(c2cccc(C)c2C)C(=O)CN1Cc1cncn1Cc1ccc(C#N)cc1 [Compound 2n, (S)-4-((5-((2-butyl-4-(2,3-dimethylphenyl)-5-oxopiperazin-1-yl)methyl)-1H-imidazol-1-yl)methyl)benzonitrile] | 2200 ± 1300 | had little effect or were slightly deleterious | – |
| CCCC[C@H]1CN(c2cccc(OC(F)(F)F)c2)C(=O)CN1Cc1cncn1Cc1ccc(C#N)c(F)c1 [Compound 2q, (S)-4-((5-((2-Butyl-5-oxo-4-(3-(trifluoromethoxy)-phenyl)piperazin-1-yl)methyl)-1H-imidazol-1-yl)methyl)-2-fluorobenzonitrile] | – | 9 fold | improvement of 1μMIC50 over L-778,123 ([3]; 1 μM FPP, relative to L-778,123): 150 fold; antifungal activity ([2]; C. neoformans): barely exhibited antifungal activity; Ki [4]: 4 nM; improvement of uncompetitive binding affinity in the H state ([4]; H state vs L state): ~10%; inhibition mode ([4]; with respect to FPP): purely uncompetitive inhibitor |
